Tests used:
[1] = system: K. pneumoniae ATCC 13883 (EN0006) and selected mutants; assay: MIC of mutants from frequency of resistance experiments; type: cell-based; settings: for MIC EN0006: ATCC 13883 parent; for MIC EN0006 / MIC CH10219: lpxH wild-type; for MIC CH10218: lpxH F128L; for MIC CH10218 / MIC CH10220 / MIC CH10221 / MIC CH10219: selected against EBL-3647; for MIC CH10206 / MIC CH10220: lpxH F141S; for MIC CH10206 / MIC CH10205 / MIC CH10207: selected against EBL-3599; for MIC CH10205 / MIC CH10207 / MIC CH10221: lpxH R80H; for MIC CH10219: ramR A40V
Experimental: Minimum inhibitory concentration (MIC) values were determined according to the Clinical Laboratory Standards Institute guidelines. Frequency of resistance was determined by plating ~5 × 10^8 bacterial cells on agar-solidified media plates containing test compound at concentrations corresponding to four times the measured solid-media MIC of the strains. Colonies were counted after 24 h, restreaked onto media containing the same concentration of compound, and the MIC remeasured against the assayed compound. Genomic DNA from isolated clones was sequenced by paired-end sequencing on an Illumina MiSeq device. Complete experimental details available in SI Appendix. […]
Minimum inhibitory concentration (MIC) determination. Broth microdilution and agar dilution MIC assays were conducted according to CLSI guidelines (M07-2012). Appropriate inoculation suspension density was assessed using a Sensititre Nephelometer with a Sensititre 0.5 […]
McFarland Standard. […]
Frequency of Resistance. Frequency of resistance was assessed by spread plating between […] cfu of a freshly-grown culture of the strain of interest on plates containing a concentration of compound corresponding to 4 times the MIC of the strain (as determined by agar-dilution MIC). Serial dilutions of the same cultures were plated on non-selective media to determine the number of cells plated. The frequency of resistance was determined by dividing the number of colonies obtained on the selective plates after 24 hours of growth by the calculated total population plated. Typically 4 independently grown cultures were used to initiate 4 separate experiments, and the total combined number of obtained colonies and plated populations were used for calculations. Isolated colonies from selection plates were re-streaked on an additional plate containing the same concentration of compound used in the original selection. Clones were saved at -80 °C for subsequent analysis.
Whole-genome sequencing and data analysis. Genomic DNA of selected clones was prepared using an Epicentre MasterPure Complete DNA Purification Kit. Whole-genome sequencing libraries were prepared using an Illumina Nextera XT Library Preparation Kit. The libraries were sequenced using an Illumina MiSeq device with a V3 600-cycle reagent kit. Whole-genome sequencing data was analyzed using CLC Genomics Workbench Version 11. To determine the genotype of MDR strains from the ENABLE strain collection, de novo assembled contigs were […]

Safety testing in mice = type: in vivo; settings: intravenous 50 mg/kg and subcutaneous 100 mg/kg
Experimental: PK and safety studies were done the Latvian Institute for Organic Synthesis (Riga, Latvia) and in vivo efficacy studies were done at Statens Serum Institut (Copenhagen, Denmark). Assays were done in accordance with the relevant permits at the respective sites (SI Appendix). For PK studies, plasma samples were taken from mice dosed subcutaneously and the samples were analyzed by UPLC/MS/MS. For in vivo efficacy studies, neutropenic mice were infected intraperitoneally with 10^6 bacteria and treated with subcutaneously with test compounds 1 h after infection. The mice were euthanized 4 h after treatment and serially diluted samples of blood and peritoneal fluid were plated onto blood agar plates. Complete experimental details available in SI Appendix.
Lantmännen) and water. […]
Safety testing in mice. […] Mice were extensively observed and toxicity signs were scored after 0-2, 5, […]
Plasma sample analysis by UPLC/MS/MS. Concentrations of EBL-3599 and EBL-3647 in mouse blood plasma were measured by liquid chromatography tandem mass spectrometry (LC/MS/MS) in positive electrospray ionization (ESI+) in multi reaction monitoring (MRM) mode. […]
A sample volume of 20 μL was transferred into a plastic tube and mixed with 300μL acetonitrile/methanol mixture (3:1, v/v) to precipitate proteins. […] Bioanalysis of samples from each mouse were measured in duplicate and the results averaged. […]

| SMILES | MIC EN0006 [1] | MIC CH10218 [1] | MIC CH10206 [1] | MIC CH10220 [1] | MIC CH10205 [1] | MIC CH10207 [1] | MIC CH10221 [1] | MIC CH10219 [1] | Tolerability / adverse reactions in mice (Safety testing in mice) |
| --- | --- | --- | --- | --- | --- | --- | --- | --- | --- |
| Cc1cc(C#N)nc(N2CCN(S(=O)(=O)c3ccc(NC(=O)c4cc(CNCCCN)ccc4N(C)S(C)(=O)=O)cc3)CC2)n1.Cl.Cl [EBL-3599] | 1 µg/mL | 64 µg/mL | > 64 µg/mL | > 64 µg/mL | 32 µg/mL | 32 µg/mL | > 64 µg/mL | 8 µg/mL | well tolerated |
| Cc1cc(C#N)nc(N2CCN(S(=O)(=O)c3ccc(NC(=O)c4cc(CN5CC(CN)C5)ccc4N(C)S(C)(=O)=O)cc3)CC2)n1 [EBL-3647] | 1 µg/mL | 32 µg/mL | > 64 µg/mL | > 64 µg/mL | 32 µg/mL | 32 µg/mL | > 64 µg/mL | 8 µg/mL | well tolerated |
